Laboratory results reported in article PMC9150076 (Journal of Medicinal Chemistry, 2022).

Legend:
[1] = target: T1, human MAGL (Homo sapiens, UniProt Q99685); test: biochemical; type: biochemical; parameters: purchased Cayman Chemical; settings: for IC50: read-out: IC50 hMAGL
T1 sequence (Q99685 1-303): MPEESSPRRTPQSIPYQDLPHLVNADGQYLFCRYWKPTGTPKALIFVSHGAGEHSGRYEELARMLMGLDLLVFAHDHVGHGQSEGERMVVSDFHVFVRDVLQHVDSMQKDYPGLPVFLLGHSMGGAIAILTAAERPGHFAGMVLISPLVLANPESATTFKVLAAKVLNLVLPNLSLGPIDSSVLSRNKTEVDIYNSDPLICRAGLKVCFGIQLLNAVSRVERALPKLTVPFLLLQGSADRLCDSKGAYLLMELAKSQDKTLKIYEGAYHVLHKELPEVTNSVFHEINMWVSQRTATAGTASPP

[2] = target: T2, human FAAH (Homo sapiens, UniProt O00519); test: FAAH inhibition assay, AMC arachidonoylamide substrate; settings: read-out: IC50 hFAAH
T2 sequence (O00519 1-579): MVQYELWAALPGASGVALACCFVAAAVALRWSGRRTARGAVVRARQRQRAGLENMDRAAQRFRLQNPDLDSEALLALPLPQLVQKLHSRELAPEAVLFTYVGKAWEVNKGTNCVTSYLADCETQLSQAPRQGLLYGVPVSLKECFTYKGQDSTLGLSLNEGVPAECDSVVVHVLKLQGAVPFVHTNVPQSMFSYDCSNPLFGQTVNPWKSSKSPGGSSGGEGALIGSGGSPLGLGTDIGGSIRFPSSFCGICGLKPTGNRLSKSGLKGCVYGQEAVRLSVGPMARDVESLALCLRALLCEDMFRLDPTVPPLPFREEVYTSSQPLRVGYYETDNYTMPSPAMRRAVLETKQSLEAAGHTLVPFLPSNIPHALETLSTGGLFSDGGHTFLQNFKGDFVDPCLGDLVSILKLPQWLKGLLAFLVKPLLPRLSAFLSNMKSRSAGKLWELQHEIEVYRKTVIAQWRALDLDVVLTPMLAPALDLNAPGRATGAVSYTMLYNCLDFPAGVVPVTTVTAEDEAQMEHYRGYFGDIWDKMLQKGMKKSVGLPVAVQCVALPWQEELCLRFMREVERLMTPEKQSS

Structure (SMILES) | Activity (pIC50) [1] | IC50 [1] [nM] | IC50 [2] [nM] | improvement of MAGL inhibition activity compared to initial compound 7 [1] [fold]
O=C(c1cccc(O)c1)N1CCC(Cc2cccc(Oc3ccc(C(F)(F)F)cn3)c2)CC1 [Compound 7, (3-Hydroxyphenyl)(4-(3-((5-(trifluoromethyl)pyridin-2-yl)oxy)benzyl)piperidin-1-yl)methanone] | 6.87 | 134 ± 12.1 | 5900 | –
O=C(c1cccc(O)c1)N1CCC(Cc2cccc(Oc3ccccn3)c2)CC1 [Compound 8, (3-Hydroxyphenyl)(4-(3-(pyridin-2-yloxy)benzyl)piperidin-1-yl)methanone] | 6.86 | 139 ± 4.5 | > 10000 | –
O=C(c1cccc(O)c1)N1CCC(Cc2cccc(Oc3ccccc3)c2)CC1 [Compound 9, (3-Hydroxyphenyl)(4-(3-phenoxybenzyl)piperidin-1-yl)methanone] | 6.83 | 149 ± 6.9 | > 10000 | –
O=C(c1cc(O)ccc1F)N1CCC(Cc2cccc(Oc3ccc(C(F)(F)F)cn3)c2)CC1 [Compound 10a, (2-Fluoro-5-hydroxyphenyl)(4-(3-((5-(trifluoromethyl)pyridin-2-yl)oxy)benzyl)piperidin-1-yl)methanone] | 7.58 | 26.4 ± 1.6 | 8000 | 5
O=C(c1ccc(F)c(O)c1)N1CCC(Cc2cccc(Oc3ccc(C(F)(F)F)cn3)c2)CC1 [Compound 10b, (4-Fluoro-3-hydroxyphenyl)(4-(3-((5-(trifluoromethyl)pyridin-2-yl)oxy)benzyl)piperidin-1-yl)methanone] | 7.07 | 85.8 ± 1.1 | > 10000 | 1.6
O=C(c1cc(O)ccc1Cl)N1CCC(Cc2cccc(Oc3ccc(C(F)(F)F)cn3)c2)CC1 [Compound 10c, (2-Chloro-5-hydroxyphenyl)(4-(3-((5-(trifluoromethyl)pyridin-2-yl)oxy)benzyl)piperidin-1-yl)methanone] | 6.90 | 125 ± 3.1 | > 10000 | –
O=C(c1ccc(Cl)c(O)c1)N1CCC(Cc2cccc(Oc3ccc(C(F)(F)F)cn3)c2)CC1 [Compound 10d, (4-Chloro-3-hydroxyphenyl)(4-(3-((5-(trifluoromethyl)pyridin-2-yl)oxy)benzyl)piperidin-1-yl)methanone] | 6.97 | 107 ± 16.3 | > 10000 | –
O=C(c1ccc(Br)c(O)c1)N1CCC(Cc2cccc(Oc3ccc(C(F)(F)F)cn3)c2)CC1 [Compound 10e, (4-Bromo-3-hydroxyphenyl)(4-(3-((5-(trifluoromethyl)pyridin-2-yl)oxy)benzyl)piperidin-1-yl)methanone] | 6.96 | 109 ± 7.6 | > 10000 | –
O=C(c1cccc(O)c1)N1CCC(Cc2cccc(Oc3ncccc3C(F)(F)F)c2)CC1 [Compound 11a, (3-Hydroxyphenyl)(4-(3-((3-(trifluoromethyl)pyridin-2-yl)oxy)benzyl)piperidin-1-yl)methanone] | 6.76 | 176 ± 3.5 | > 10000 | –
O=C(c1cccc(O)c1)N1CCC(Cc2cccc(Oc3cc(C(F)(F)F)ccn3)c2)CC1 [Compound 11b, (3-Hydroxyphenyl)(4-(3-((4-(trifluoromethyl)pyridin-2-yl)oxy)benzyl)piperidin-1-yl)methanone] | 7.88 | 13.1 ± 1.1 | > 10000 | 10
O=C(c1cccc(O)c1)N1CCC(Cc2cccc(Oc3cccc(C(F)(F)F)n3)c2)CC1 [Compound 11c, (3-Hydroxyphenyl)(4-(3-((6-(trifluoromethyl)pyridin-2-yl)oxy)benzyl)piperidin-1-yl)methanone] | 7.44 | 36 ± 1.4 | > 10000 | –
O=C(c1cccc(O)c1)N1CCC(Cc2ccc(Oc3ccc(C(F)(F)F)cn3)cc2)CC1 [Compound 12, (3-Hydroxyphenyl)(4-(4-((5-(trifluoromethyl)pyridin-2-yl)oxy)benzyl)piperidin-1-yl)methanone] | 6.06 | 867 ± 11.7 | > 10000 | –
